From US5721246A, “Heterobicyclic sulfonamide and sulfonic ester derivatives” (Eisai Co., Ltd., priority 1993, dated 1998)
Values after ≈ are worked out from the molar mass of the structure shown. Where two headings read alike, the source gives them in different places.

Experiments:
colon 38 cells = test: In vitro antitumor test against colon 38 cells (MTT); format: cell-based; settings: 72 h, concentration at which 50% of mouse colon 38 cells are inhibited, 3 days
Description: In vitro Antitumor Test Against Colon 38 Cells (Mouse Colon Cancer Cells)
2.5×10^3 (0.1 ml) of colon 38 cells suspended in RPMI1640 medium (a product of Sanko Junyaku) containing 10% of fetal bovine serum, penicillin (100 units/ml), streptomycin (100 μg/ml), mercaptoethanol (5×10^-5 M) and sodium pyruvate (1 mM) were inoculated in each well of a 96-well flat-bottomed microplate, and cultured in an incubator containing 5% of carbon dioxide at 37° C. for one day.
A test compound according to the present invention was dissolved in dimethyl sulfoxide in a concentration of 20 mg/ml and the resulting solution was diluted with 10% fetal bovine serum/RPMI1640 medium to a concentration of 200 μg/ml. The resulting solution was diluted with 10% fetal bovine serum/RPMI1640 medium to prepare 3-fold serial dilutions with the maximum concentration being 200 μg/ml. The obtained dilutions were each poured into the well of the above-described culture plate in an amount of 0.1 ml. The resulting plate was cultured at 37° C. in an incubator containing 5% of carbon dioxide for 3 days.
Thereafter, a solution of MTT[3-(4,5-dimethylthiazol-2-yl)-2,5-diphenyltetrazolium bromide] (having a concentration of 3.3 mg/ml) was added to each well in an amount of 0.05 ml. The resulting mixtures were further incubated for 2 hours. The supernatant was removed from each well by suction. Formed formazan was dissolved in 0.1 ml of dimethyl sulfoxide. The absorbance at 540 nm was determined with a microplate reader and the absorbance was taken as an index of the number of viable cells. The inhibitory ratio of the test compound was calculated according to the following formula to determine the IC50 of the test compound, with the IC50 referring to the concentration at which 50% of mouse colon 38 cells are inhibited: [formula] T: absorbance of well containing a test compound C: absorbance of well containing no test compound

colon 38 = format: in vivo, mouse; settings: once a day for 8 days, BDF1 mice, tumor weight on 21st day
Description: In vivo Antitumor Test Against Colon 38 (Mouse Colon Cancer)
About 75 mg of colon 38 was subcutaneously transplanted to the flank of each BDF1 mouse (aged 7 weeks, female). A test compound according to the present invention was suspended in a physiological saline containing 3.5% of dimethyl sulfoxide and 6.5% of Tween 80 and the obtained suspension was intraperitoneally administered to the mice in a predetermined dose once a day for 8 days from the next day of transplantation. On the other hand, only a physiological saline containing 3.5% of dimethyl sulfoxide and 6.5% of Tween 80 was intraperitoneally administered to the mice of the control group. The control group was composed of ten mice, while each treated group was composed of six mice.
On the 21st day after the transplantation, the tumor was extirpated from each mouse to determine its weight. The tumor growth inhibition ratio was determined by the following formula: [formula] T: average weight of tumor of the treated group C: average weight of tumor of the control group

HCT116 = test: animal or person; settings: Mus musculus, HCT-116, ip, 504 h, once a day for 4 days, nude mice, tumor weight on 21st day, read-out: Growth inhibition ratio
Excerpt: In vivo Antitumor Test Against HCT116 (Human Colon Cancer)
HCT116 (5 to 8×10^6) was subcutaneously transplanted to the flank of each nude mouse (BALB/c·nu/nu, aged 7 to 8 weeks, female). A test compound according to the present invention was suspended in a physiological saline containing 3.5% of dimethyl sulfoxide and 6.5% of Tween 80 and the obtained suspension was intraperitoneally administered to the mice treated above once a day in a predetermined dose for 4 days after the time at which the tumor volume had increased to about 100 mm^3, which was about 7 days after the transplantation. On the other hand, only a physiological saline containing 3.5% of dimethyl sulfoxide and 6.5% of Tween 80 was intraperitoneally administered to the mice of the control group. The control group was composed of ten mice, while each treated group was composed of five mice. On the 21st day after the initiation of administration, the tumor was extirpated from each mouse to determine its weight. The tumor growth inhibition ratio was determined by the following formula: [formula] T: average weight of tumor of the treated group C: average weight of tumor of the control group

Row | IC50 (colon 38 cells) [µg/mL] | Structure (SMILES) | Growth inhibition ratio (colon 38; 200 mg/kg/day i.p.) [%] | inhibition in vivo at 200 mg/kg (HCT116; 200 mg/kg/day i.p.) [%] | Growth inhibition ratio (colon 38; 50 mg/kg/day i.p.) [%] | inhibition in vivo at 100 mg/kg (HCT116; 100 mg/kg/day i.p.) [%]
1 | 2 (≈ 5.97 µM) | Nc1ccc(S(=O)(=O)Nc2cnc3c(Cl)cccc3n2)cc1 [CQS, 2-sulfanylamido-5-chloroquinoxaline, reference compound] | 53 | 33 |  | 
2 | 0.23 (≈ 0.715 µM) | Nc1ccc(S(=O)(=O)Nc2cccc3c(Cl)c[nH]c23)cc1 [Example 3] |  |  | 94 | 
3 | 0.13 (≈ 0.392 µM) | N#Cc1ccc(S(=O)(=O)Nc2cccc3c(Cl)c[nH]c23)cc1 [Example 10] |  |  | 94 | 
4 | 0.13 (≈ 0.392 µM) | N#Cc1c[nH]c2c(NS(=O)(=O)c3cccc(Cl)c3)cccc12 [Example 17] |  |  | 94 | 
5 | 0.19 (≈ 0.543 µM) | NC(=O)c1ccc(S(=O)(=O)Nc2cccc3c(Cl)c[nH]c23)cc1 [Example 29] |  |  | 97 | 80
6 | 0.25 (≈ 0.737 µM) | CC(=O)c1ccc(S(=O)(=O)Nc2cccc3c(C#N)c[nH]c23)cc1 [Example 42] |  |  | 98 | 
